The source made the active and inactive calls. No cut-off for these calls is given here.
What was measured:
Mus musculus [1] = test: Induction of Treg response in silica-induced C57BL/6 mouse lung inflammation and fibrosis model assessed as increase in IL-10 mRNA expression in lung at 2 mg, ip administered every day measured on day 7, 28 by real time RT-PCR method relative to silica-treated control; type: functional, organism-based
Mus musculus [2] = test: Inhibition of Th17 response in silica-induced C57BL/6 mouse lung inflammation and fibrosis model assessed as decrease in RORgammat mRNA expression in spleen at 2 mg, ip administered every day measured on day 7, 28, 56 by real time RT-PCR method relative to silica-treated control; type: functional, organism-based
Mus musculus [3] = test: Induction of Treg response in silica-induced C57BL/6 mouse lung inflammation and fibrosis model assessed as increase in Foxp3 mRNA expression in spleen at 2 mg, ip administered every day measured on day 7, 28 by real time RT-PCR method relative to silica-treated control; type: functional, organism-based
Mus musculus [4] = test: Antiinflammatory activity in C57BL/6 mouse silicosis model assessed as reduction in silica-induced accumulation of neutrophils in bronchoalveolar lavage fluid at 2 mg, ip administered every day measured on day 7 by Giemsa staining method; type: functional, organism-based
Mus musculus [5] = test: Induction of Treg response in silica-induced C57BL/6 mouse lung inflammation and fibrosis model assessed as increase in level of CD4+T cells coexpressing Foxp3 in hilar lymph node at 2 mg, ip administered every day measured on day 7 by flow cytometric analysis (reference value: 12.14 +/- 0.53%); type: functional, CD4+T cell
Mus musculus [6] = test: Induction of Treg response in silica-induced C57BL/6 mouse lung inflammation and fibrosis model assessed as increase in level of CD4+T cells coexpressing Foxp3 in hilar lymph node at 2 mg, ip administered every day measured on day 56 by flow cytometric analysis (reference value: 8.76 +/- 0.23%); type: functional, CD4+T cell
Mus musculus [7] = test: Inhibition of Th2 response in silica-induced C57BL/6 mouse lung inflammation and fibrosis model assessed as decrease in IL-4 level in bronchoalveolar lavage fluid at 2 mg, ip administered every day measured on day 7, 28, 56 by cytometric bead array method relative to silica-treated control; type: functional, organism-based
Mus musculus [8] = test: Antiinflammatory activity in C57BL/6 mouse silicosis model assessed as silica-induced accumulation of lymphocytes in bronchoalveolar lavage fluid at 2 mg, ip administered every day measured on day 7,28 and 56 by Giemsa staining method; type: functional, organism-based
Mus musculus [9] = test: Inhibition of silica-induced lung fibrosis in C57BL/6 mouse silicosis model at 2 mg, ip administered every day measured on day 28 to 56 by Masson staining-based light microscopic analysis; type: functional, organism-based
Mus musculus [10] = test: Inhibition of Th17 response in spleen in silica-induced C57BL/6 mouse lung inflammation and fibrosis model assessed as decrease in level of CD4+T cells coexpressing IL-17A at 2 mg, ip administered every day measured on day 28 by flow cytometric analysis (reference value: 0.68 +/- 0.07%); type: functional, CD4+T cell
Mus musculus [11] = test: Inhibition of Th17 response in silica-induced C57BL/6 mouse lung inflammation and fibrosis model assessed as decrease in IL-17A mRNA expression in lung at 2 mg, ip administered every day measured on day 7 by real time RT-PCR method relative to silica-treated control; type: functional, organism-based
Mus musculus [12] = test: Inhibition of Th17 cell differentiation in silica-induced C57BL/6 mouse lung inflammation and fibrosis model assessed as decrease in IL-6 mRNA expression in lung at 2 mg, ip administered every day measured on day 28, 56 by real time RT-PCR method relative to silica-treated control; type: functional, organism-based
Mus musculus [13] = test: Inhibition of Th17 cell differentiation in silica-induced C57BL/6 mouse lung inflammation and fibrosis model assessed as decrease in IL-6 protein level in bronchoalveolar lavage fluid at 2 mg, ip administered every day measured on day 28 to 56 by cytometric bead array method; type: functional, organism-based
Mus musculus [14] = test: Inhibition of Th17 cell differentiation in silica-induced C57BL/6 mouse lung inflammation and fibrosis model assessed as decrease in IL-6 protein level in bronchoalveolar lavage fluid at 2 mg, ip administered every day measured on day 7 by cytometric bead array method relative to silica-treated control; type: functional, organism-based
Mus musculus [15] = test: Antiinflammatory activity in C57BL/6 mouse silicosis model assessed as reduction in silica-induced accumulation of total cells in bronchoalveolar lavage fluid at 2 mg, ip administered every day measured on day 7,28 and 56 by Giemsa staining method; type: functional, organism-based
Mus musculus [16] = test: Inhibition of Th17 cell differentiation in silica-induced C57BL/6 mouse lung inflammation and fibrosis model assessed as decrease in IL-6 mRNA expression in lung at 2 mg, ip administered every day measured on day 7 by real time RT-PCR method relative to silica-treated control; type: functional, organism-based
Mus musculus [17] = test: Induction of Treg response in silica-induced C57BL/6 mouse lung inflammation and fibrosis model assessed as increase in level of CD4+T cells coexpressing Foxp3 in spleen at 2 mg, ip administered every day measured on day 28 by flow cytometric analysis (reference value: 10.88 +/- 0.55 %); type: functional, CD4+T cell
Mus musculus [18] = test: Inhibition of Th17 cell differentiation in silica-induced C57BL/6 mouse lung inflammation and fibrosis model assessed as increase in IL-23 mRNA expression in lung at 2 mg, ip administered every day measured on day 7 by real time RT-PCR method relative to silica-treated control; type: functional, organism-based
Mus musculus [19] = test: Inhibition of Th2 response in silica-induced C57BL/6 mouse lung inflammation and fibrosis model assessed as decrease in GATA-3 mRNA expression in lung at 2 mg, ip administered every day measured on day 7, 56 by real time RT-PCR method relative to silica-treated control; type: functional, organism-based
Mus musculus [20] = test: Antiinflammatory activity in C57BL/6 mouse silicosis model assessed as silica-induced accumulation of macrophages in bronchoalveolar lavage fluid at 2 mg, ip administered every day measured on day 7,28 and 56 by Giemsa staining method; type: functional, organism-based
Mus musculus [21] = test: Induction of Treg response in silica-induced C57BL/6 mouse lung inflammation and fibrosis model assessed as increase in level of CD4+T cells coexpressing Foxp3 in hilar lymph node at 2 mg, ip administered every day measured on day 28 by flow cytometric analysis (reference value: 8.18 +/- 0.61%); type: functional, CD4+T cell
Mus musculus [22] = test: Inhibition of Th1 response in silica-induced C57BL/6 mouse lung inflammation and fibrosis model assessed as decrease in IFN-gamma mRNA expression in spleen at 2 mg, ip administered every day measured on day 7, 28 by real time RT-PCR method relative to silica-treated control; type: functional, organism-based
Mus musculus [23] = test: Inhibition of Th17 response in hilar lymph node in silica-induced C57BL/6 mouse lung inflammation and fibrosis model assessed as decrease in level of CD4+T cells coexpressing IL-17A at 2 mg, ip administered every day measured on day 28 by flow cytometric analysis (reference value: 0.76 +/- 0.07%); type: functional, CD4+T cell
Mus musculus [24] = test: Induction of Treg response in silica-induced C57BL/6 mouse lung inflammation and fibrosis model assessed as increase in level of CD4+T cells coexpressing Foxp3 in spleen at 2 mg, ip administered every day measured on day 7 by flow cytometric analysis (reference value: 11.75 +/- 1.03%); type: functional, CD4+T cell
Mus musculus [25] = test: Antiinflammatory activity in C57BL/6 mouse silicosis model assessed as reduction in inflammatory cell infiltration at 2 mg, ip administered every day measured on day 7,28 and 56 by haematoxylin and eosin staining-based light microscopic analysis relative to silica-treated control; type: functional, organism-based
Mus musculus [26] = test: Inhibition of Th17 response in spleen in silica-induced C57BL/6 mouse lung inflammation and fibrosis model assessed as decrease in level of CD4+T cells coexpressing IL-17A at 2 mg, ip administered every day measured on day 56 by flow cytometric analysis (reference value: 0.6 +/- 0.03%); type: functional, CD4+T cell
Mus musculus [27] = test: Induction of Treg response in silica-induced C57BL/6 mouse lung inflammation and fibrosis model assessed as increase in TGF-beta mRNA expression at 2 mg, ip administered every day measured on day 7 by real time RT-PCR method relative to silica-treated control; type: functional, organism-based
Mus musculus [28] = test: Induction of Treg response in silica-induced C57BL/6 mouse lung inflammation and fibrosis model assessed as increase in Foxp3 mRNA expression in lung at 2 mg, ip administered every day measured on day 28, 56 by real time RT-PCR method relative to silica-treated control; type: functional, organism-based
Mus musculus [29] = test: Induction of Treg response in silica-induced C57BL/6 mouse lung inflammation and fibrosis model assessed as increase in level of CD4+T cells coexpressing Foxp3 in spleen at 2 mg, ip administered every day measured on day 56 by flow cytometric analysis (reference value: 10 +/- 0.53 %); type: functional, CD4+T cell
Mus musculus [30] = test: Inhibition of Th17 response in spleen in silica-induced C57BL/6 mouse lung inflammation and fibrosis model assessed as decrease in level of CD4+T cells coexpressing IL-17A at 2 mg, ip administered every day measured on day 7 by flow cytometric analysis (reference value: 0.9 +/- 0.11%); type: functional, CD4+T cell
Mus musculus [31] = test: Inhibition of Th1 response in silica-induced C57BL/6 mouse lung inflammation and fibrosis model assessed as decrease in IFN-gamma mRNA expression in lung at 2 mg, ip administered every day measured on day 7 by real time RT-PCR method relative to silica-treated control; type: functional, organism-based
Mus musculus [32] = test: Inhibition of Th1 response in silica-induced C57BL/6 mouse lung inflammation and fibrosis model assessed as decrease in level of CD4+T cells coexpressing IFNgamma at 2 mg, ip administered every day measured on day 7 by flow cytometric analysis; type: functional, organism-based; conditions: CD4+T cell
Mus musculus [33] = test: Inhibition of Th1 response in silica-induced C57BL/6 mouse lung inflammation and fibrosis model assessed as decrease in TNFalpha mRNA expression in bronchoalveolar lavage fluid at 2 mg, ip administered every day measured on day 7 by real time RT-PCR method; type: functional, organism-based
Mus musculus [34] = test: Antiinflammatory activity in C57BL/6 mouse silicosis model assessed as reduction in alveolar wall change at 2 mg, ip administered every day measured on day 7,28 and 56 by haematoxylin and eosin staining-based light microscopic analysis relative to silica-treated control; type: functional, organism-based
Mus musculus [35] = test: Inhibition of Th17 cell differentiation in silica-induced C57BL/6 mouse lung inflammation and fibrosis model assessed as increase in IL-23 mRNA expression in lung at 2 mg, ip administered every day measured on day 28, 56 by real time RT-PCR method relative to silica-treated control; type: functional, organism-based
Mus musculus [36] = test: Inhibition of Th17 response in hilar lymph node in silica-induced C57BL/6 mouse lung inflammation and fibrosis model assessed as decrease in level of CD4+T cells coexpressing IL-17A at 2 mg, ip administered every day measured on day 7 by flow cytometric analysis (reference value: 1.08 +/- 0.07%); type: functional, CD4+T cell

With `O=C(O)[C@H]1O[C@@H](Oc2cc3oc(-c4ccccc4)cc(=O)c3c(O)c2O)[C@H](O)[C@@H](O)[C@@H]1O` [BAICALIN] the Activity (Mus musculus [1]) was “Active”, the inhibition (Mus musculus [2]) was “Active” and the Activity (Mus musculus [3]) was “Active”. The Activity (Mus musculus [4]) was “Active”, the Activity (Mus musculus [5]) was 15.92% and the Activity (Mus musculus [6]) was 10.3%. For the same compound, the inhibition (Mus musculus [7]) was “Active”, the Activity (Mus musculus [8]) was “Active” and the inhibition (Mus musculus [9]) was “Active”. The “IL-17A+ CD4+ T cells” value (Mus musculus [10]) was 0.42%, the inhibition (Mus musculus [11]) was “Active” and the inhibition (Mus musculus [12]) was “inactive”. For the same compound, the inhibition (Mus musculus [13]) was “inactive”, the inhibition (Mus musculus [14]) was “Active” and the Activity (Mus musculus [15]) was “Active”. For the same compound, the inhibition (Mus musculus [16]) was “Active”, the Activity (Mus musculus [17]) was 14.34% and the inhibition (Mus musculus [18]) was “inactive”. The inhibition (Mus musculus [19]) was “Active”, the Activity (Mus musculus [20]) was “inactive” and the Activity (Mus musculus [21]) was 13.72%. The inhibition (Mus musculus [22]) was “Active”, the “IL-17A+ CD4+ T cells” value (Mus musculus [23]) was 0.5% and the Activity (Mus musculus [24]) was 17.4%. For the same compound, the Activity (Mus musculus [25]) was “Active”, the “IL-17A+ CD4+ T cells” value (Mus musculus [26]) was 0.4% and the Activity (Mus musculus [27]) was “Active”. For the same compound, the Activity (Mus musculus [28]) was “Active”, the Activity (Mus musculus [29]) was 11.76% and the “IL-17A+ CD4+ T cells” value (Mus musculus [30]) was 0.42%. The inhibition (Mus musculus [31]) was “Active”, the inhibition (Mus musculus [32]) was “Active” and the inhibition (Mus musculus [33]) was “Active”. For the same compound, the Activity (Mus musculus [34]) was “Active”, the inhibition (Mus musculus [35]) was “Active” and the “IL-17A+ CD4+ T cells” value (Mus musculus [36]) was 0.46%.

Source: ChEMBL document CHEMBL3758179, “Baicalin Alleviates Silica-Induced Lung Inflammation and Fibrosis by Inhibiting the Th17 Response in C57BL/6 Mice” (2015)
